# From patent US9902702B2, “Spirocycloheptanes as inhibitors of rock” (BRISTOL-MYERS SQUIBB COMPANY, priority 2014, dated 2018)
# Molecular target: ROCK2 (Homo sapiens, UniProt O75116)
# Assay: ROCK assay: phosphorylation of FITC peptide substrate, LABCHIP 3000 mobility shift
# Assay type: biochemical
# Conditions: 5 μM ATP, 1.5 μM peptide substrate; read-out: ROCK2 Activity (ROCK IC50 range)
# Outline: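 Rho kinase variant phosphorylates 1.5 μM FITC-AHA-AKRRRLSSLRA-OH with 5 μM ATP in 20 mM HEPES pH 7.5, 20 mM MgCl2, 0.015% Brij-35, 4 mM DTT, DMSO <2%. EDTA stops the reaction, and phospho and non-phospho peptides are resolved by LabChip 3000 mobility shift. IC50 from dose-response curve fit.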
# Chain of ROCK2 (O75116 whole entry, species assumed): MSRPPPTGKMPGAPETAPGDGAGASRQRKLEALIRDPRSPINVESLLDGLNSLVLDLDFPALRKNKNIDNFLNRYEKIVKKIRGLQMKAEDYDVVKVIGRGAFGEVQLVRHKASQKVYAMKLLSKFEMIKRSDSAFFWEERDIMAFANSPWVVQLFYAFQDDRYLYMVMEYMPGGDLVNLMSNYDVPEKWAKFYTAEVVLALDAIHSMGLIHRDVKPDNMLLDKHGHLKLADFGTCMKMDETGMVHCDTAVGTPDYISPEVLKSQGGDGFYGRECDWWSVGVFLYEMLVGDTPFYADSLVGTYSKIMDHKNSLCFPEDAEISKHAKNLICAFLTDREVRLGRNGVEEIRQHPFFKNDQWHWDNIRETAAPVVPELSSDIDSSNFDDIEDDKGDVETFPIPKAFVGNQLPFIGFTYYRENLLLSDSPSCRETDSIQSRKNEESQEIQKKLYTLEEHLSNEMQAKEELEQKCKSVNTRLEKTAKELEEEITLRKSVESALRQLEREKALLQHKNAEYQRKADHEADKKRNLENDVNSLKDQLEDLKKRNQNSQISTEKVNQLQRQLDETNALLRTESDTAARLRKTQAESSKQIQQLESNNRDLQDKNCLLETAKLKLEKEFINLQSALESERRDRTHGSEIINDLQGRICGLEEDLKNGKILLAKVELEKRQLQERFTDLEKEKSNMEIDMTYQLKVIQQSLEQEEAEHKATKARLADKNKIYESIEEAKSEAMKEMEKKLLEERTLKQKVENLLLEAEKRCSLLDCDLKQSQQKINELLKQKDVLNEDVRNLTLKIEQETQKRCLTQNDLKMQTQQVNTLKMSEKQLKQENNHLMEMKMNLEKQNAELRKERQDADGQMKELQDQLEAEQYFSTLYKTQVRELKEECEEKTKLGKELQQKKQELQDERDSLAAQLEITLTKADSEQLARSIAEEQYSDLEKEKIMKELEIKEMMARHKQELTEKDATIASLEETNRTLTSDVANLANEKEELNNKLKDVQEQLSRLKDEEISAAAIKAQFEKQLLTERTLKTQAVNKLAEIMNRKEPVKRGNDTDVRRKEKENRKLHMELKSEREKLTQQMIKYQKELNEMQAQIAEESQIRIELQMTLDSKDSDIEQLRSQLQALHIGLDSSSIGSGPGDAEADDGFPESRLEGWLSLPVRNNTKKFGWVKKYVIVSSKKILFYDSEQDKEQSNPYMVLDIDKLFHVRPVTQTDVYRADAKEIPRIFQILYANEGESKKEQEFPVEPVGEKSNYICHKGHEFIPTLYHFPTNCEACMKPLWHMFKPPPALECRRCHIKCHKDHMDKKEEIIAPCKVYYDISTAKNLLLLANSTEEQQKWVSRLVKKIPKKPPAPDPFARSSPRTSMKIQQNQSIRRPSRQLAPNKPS
row,Compound,IC50 [nM]
1,"O=C(NC1CC2(C1)CC(c1n[nH]c(=O)c3ccccc13)C2)c1cnn2cc(COCC3CCOCC3)ccc12 [Example 211, N-((aR)-6-(4-oxo-3,4-dihydrophthalazin-1-yl)spiro[3.3]heptan-2-yl)-6-(((tetrahydro-2H-pyran-4-yl)methoxy)methyl)pyrazolo[1,5-a]pyridine-3-carboxamide]",2.01 to 5
2,"O=C(N[C@H]1CC2(C1)C[C@H](c1n[nH]c(=O)c3ccccc31)C2)c1cnn2cc(CO)ccc12 (stereo partly drawn) [Example 213, 6-(hydroxymethyl)-N-((aR)-6-(4-oxo-3,4-dihydrophthalazin-1-yl)spiro[3.3]heptan-2-yl)pyrazolo[1,5-a]pyridine-3-carboxamide]",5.1 to 15
3,"CC(=O)c1ccc2c(C(=O)N[C@H]3CC4(C3)C[C@H](c3n[nH]c(=O)c5ccccc53)C4)cnn2c1 (stereo partly drawn) [Example 214, 6-acetyl-N-((aR)-6-(4-oxo-3,4-dihydrophthalazin-1-yl)spiro[3.3]heptan-2-yl)pyrazolo[1,5-a]pyridine-3-carboxamide]",2.01 to 5
4,"CC(C)(O)c1ccc2c(C(=O)N[C@H]3CC4(C3)C[C@H](c3n[nH]c(=O)c5ccccc53)C4)cnn2c1 (stereo partly drawn) [Example 215, 6-(2-hydroxypropan-2-yl)-N-((aR)-6-(4-oxo-3,4-dihydrophthalazin-1-yl)spiro[3.3]heptan-2-yl)pyrazolo[1,5-a]pyridine-3-carboxamide]",5.1 to 15
5,"O=C(Nc1ccc(Br)cc1)N[C@H]1CC2(C1)C[C@H](c1n[nH]c(=O)c3ccccc31)C2 (stereo partly drawn) [Example 227, 1-(4-bromophenyl)-3-((aR)-6-(4-oxo-3,4-dihydrophthalazin-1-yl)spiro[3.3]heptan-2-yl)urea]",15.1 to 100
6,"Cn1cc(-c2ccc(NC(=O)NC3CC4(C3)CC(c3n[nH]c(=O)c5ccccc35)C4)cc2)cn1 [Example 228, 1-(4-(1-methyl-1H-pyrazol-4-yl)phenyl)-3-((aR)-6-(4-oxo-3,4-dihydrophthalazin-1-yl)spiro[3.3]heptan-2-yl)urea]",5.1 to 15
7,"[2H]C([2H])([2H])n1cc(-c2ccc(NC(=O)NC3CC4(C3)CC(c3n[nH]c(=O)c5ccccc35)C4)cc2)cn1 [Example 229, 1-(4-(1-(^2H3)methyl-1H-pyrazol-4-yl)phenyl)-3-((aR)-6-(4-oxo-3,4-dihydrophthalazin-1-yl)spiro[3.3]heptan-2-yl)urea]",5.1 to 15
8,"O=C(Nc1ccc(-c2cnn(C3CC3)c2)cc1)NC1CC2(C1)CC(c1n[nH]c(=O)c3ccccc13)C2 [Example 230, 1-(4-(1-cyclopropyl-1H-pyrazol-4-yl)phenyl)-3-((aR)-6-(4-oxo-3,4-dihydrophthalazin-1-yl)spiro[3.3]heptan-2-yl)urea]",15.1 to 100
9,"O=C(Nc1ccc(-c2cnn(C3CCOCC3)c2)cc1)NC1CC2(C1)CC(c1n[nH]c(=O)c3ccccc13)C2 [Example 231, 1-((aR)-6-(4-oxo-3,4-dihydrophthalazin-1-yl)spiro[3.3]heptan-2-yl)-3-(4-(1-(tetrahydro-2H-pyran-4-yl)-1H-pyrazol-4-yl)phenyl)urea]",15.1 to 100

# Results, then the compound that gave them:
row,IC50 [nM],Compound
1,0.2 to 2,"[H][C@]1(c2n[nH]c(=O)c3ccccc32)C[C@]2(C[C@@H](NC(=O)c3cnn4cc(COCC=C)ccc34)C2)C1 (stereo partly drawn) [Example 212, 6-((allyloxy)methyl)-N-((aR)-6-(4-oxo-3,4-dihydrophthalazin-1-yl)spiro[3.3]heptan-2-yl)pyrazolo[1,5-a]pyridine-3-carboxamide]"
2,0.2 to 2,"Cc1c(-c2ccc3c(C(=O)N[C@H]4CC5(C4)C[C@H](c4n[nH]c(=O)c6ccccc64)C5)cnn3c2)cnn1C (stereo partly drawn) [Example 216, 6-(1,5-dimethyl-1H-pyrazol-4-yl)-N-((aR)-6-(4-oxo-3,4-dihydrophthalazin-1-yl)spiro[3.3]heptan-2-yl)pyrazolo[1,5-a]pyridine-3-carboxamide]"
3,0.2 to 2,"O=C(NC1CC2(C1)CC(c1n[nH]c(=O)c3ccccc13)C2)c1cnn2cc(-c3cnn(C4CC4)c3)ccc12 [Example 217, 6-(1-cyclopropyl-1H-pyrazol-4-yl)-N-((aR)-6-(4-oxo-3,4-dihydrophthalazin-1-yl)spiro[3.3]heptan-2-yl)pyrazolo[1,5-a]pyridine-3-carboxamide]"
4,0.2 to 2,"O=C(NC1CC2(C1)CC(c1n[nH]c(=O)c3ccccc13)C2)c1cnn2cc(-c3cnn(CC4CC4)c3)ccc12 [Example 218, 6-(1-(cyclopropylmethyl)-1H-pyrazol-4-yl)-N-((aR)-6-(4-oxo-3,4-dihydrophthalazin-1-yl)spiro[3.3]heptan-2-yl)pyrazolo[1,5-a]pyridine-3-carboxamide]"
5,0.2 to 2,[2H]C([2H])([2H])n1cc(-c2ccc3c(C(=O)NC4CC5(C4)CC(c4n[nH]c(=O)c6ccccc46)C5)cnn3c2)cn1 (stereo not drawn) [Example 219]
6,0.2 to 2,"CC(C)n1cc(-c2ccc3c(C(=O)NC4CC5(C4)CC(c4n[nH]c(=O)c6ccccc46)C5)cnn3c2)cn1 [Example 220, 6-(1-isopropyl-1H-pyrazol-4-yl)-N-((aR)-6-(4-oxo-3,4-dihydrophthalazin-1-yl)spiro[3.3]heptan-2-yl)pyrazolo[1,5-a]pyridine-3-carboxamide]"
7,0.2 to 2,"Cc1nn(C)c(C)c1-c1ccc2c(C(=O)NC3CC4(C3)CC(c3n[nH]c(=O)c5ccccc35)C4)cnn2c1 [Example 221, N-((aR)-6-(4-oxo-3,4-dihydrophthalazin-1-yl)spiro[3.3]heptan-2-yl)-6-(1,3,5-trimethyl-1H-pyrazol-4-yl)pyrazolo[1,5-a]pyridine-3-carboxamide]"
8,0.2 to 2,"O=C(NC1CC2(C1)CC(c1n[nH]c(=O)c3ccccc13)C2)c1cnn2cc(-c3cnn(C4CCOCC4)c3)ccc12 [Example 222, N-((aR)-6-(4-oxo-3,4-dihydrophthalazin-1-yl)spiro[3.3]heptan-2-yl)-6-(1-(tetrahydro-2H-pyran-4-yl)-1H-pyrazol-4-yl)pyrazolo[1,5-a]pyridine-3-carboxamide]"
9,0.2 to 2,"Cn1cc(-c2ccc3c(C(=O)NC4CC5(C4)CC(c4n[nH]c(=O)c6ccccc46)C5)cnn3c2)c(C(F)(F)F)n1 [Example 223, 6-(1-methyl-3-(trifluoromethyl)-1H-pyrazol-4-yl)-N-((aR)-6-(4-oxo-3,4-dihydrophthalazin-1-yl)spiro[3.3]heptan-2-yl)pyrazolo[1,5-a]pyridine-3-carboxamide]"
10,0.2 to 2,"CC(C)n1cc(-c2ccc3c(C(=O)NC4CC5(C4)CC(c4n[nH]c(=O)c6ccccc46)C5)cnn3c2)c(C(F)(F)F)n1 [Example 224, 6-(1-isopropyl-3-(trifluoromethyl)-1H-pyrazol-4-yl)-N-((aR)-6-(4-oxo-3,4-dihydrophthalazin-1-yl)spiro[3.3]heptan-2-yl)pyrazolo[1,5-a]pyridine-3-carboxamide]"
11,0.2 to 2,"CC(C)(C)n1cc(-c2ccc3c(C(=O)NC4CC5(C4)CC(c4n[nH]c(=O)c6ccccc46)C5)cnn3c2)cn1 [Example 225, 6-(1-(tert-butyl)-1H-pyrazol-4-yl)-N-((aR)-6-(4-oxo-3,4-dihydrophthalazin-1-yl)spiro[3.3]heptan-2-yl)pyrazolo[1,5-a]pyridine-3-carboxamide]"
12,0.2 to 2,"O=C(NC1CC2(C1)CC(c1n[nH]c(=O)c3ccccc13)C2)c1cnn2cc(-c3cnn(C4CCOC4)c3)ccc12 [Example 226, N-((aR)-6-(4-oxo-3,4-dihydrophthalazin-1-yl)spiro[3.3]heptan-2-yl)-6-(1-(tetrahydrofuran-3-yl)-1H-pyrazol-4-yl)pyrazolo[1,5-a]pyridine-3-carboxamide]"
